This note sets out measurements from patent publication US10913738B2 (BRISTOL-MYERS SQUIBB COMPANY, priority 2017, dated 2021).

Read-outs that look alike come from different tables or passages of the source.

Assay [1] has as its system MLKL phosphorylation in HT29-L23 human colorectal adenocarcinoma cells. Put plainly: MLKL Phosphorylation High-Content Assay. The class given is cell-based. The following applies: Homo sapiens. The essentials:
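IC50 and Ymax obtained by 4-parameter logistic fitting of MLKL phosphorylation, measured as mean circ-ring average intensity ratio from high-content images. Staining used an anti-phospho-S358 MLKL antibody overnight at 4° C., following six-hour cell incubation at 37° C.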

Assay [2] has as its target T1, His-GST-TVMV-hRIPK1(1-324) (Homo sapiens, UniProt Q13546).
T1 construct: The coding region of human RIPK1(1-324) flanked by NdeI site at 5′ end; made in house; host or cells: Spodoptera frugiperda (Sf9) insect cells, baculovirus
T1 sequence (Q13546 1-324): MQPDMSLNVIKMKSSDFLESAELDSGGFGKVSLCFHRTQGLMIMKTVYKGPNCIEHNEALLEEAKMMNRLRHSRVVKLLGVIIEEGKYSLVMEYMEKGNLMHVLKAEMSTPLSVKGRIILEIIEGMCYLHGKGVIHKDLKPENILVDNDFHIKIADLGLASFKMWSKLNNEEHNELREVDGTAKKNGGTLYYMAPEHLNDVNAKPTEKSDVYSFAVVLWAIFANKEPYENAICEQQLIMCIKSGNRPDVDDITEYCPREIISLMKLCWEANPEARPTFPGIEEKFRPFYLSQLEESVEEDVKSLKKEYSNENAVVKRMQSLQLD
Briefly: RIPK1 HTRF Binding Assay.

Where [3] appears, read: x marks IC50 class <20 nM, read-out: pMLKL cell activity <20 nM.
Where [4] appears, read: x marks IC50 class <20 nM, read-out: RIPK1 HTRF binding <20 nM.
[5] abbreviates: x marks IC50 class 20-200 nM, read-out: pMLKL cell activity 20-200 nM.
Setting [6] is: x marks IC50 class >200 nM, read-out: pMLKL cell activity >200 nM.
Setting [7] is: x marks IC50 class 20-200 nM, read-out: RIPK1 HTRF binding 20-200 nM.

With `COc1ncc(-c2ccn3nc(N)nc3c2)cc1C(=O)NCc1ccccc1Sc1ccccc1CO` [Example 151, 5-{2-amino-[1,2,4]triazolo[1,5-a]pyridin-7-yl}-N-[(2-{[2-(hydroxymethyl)phenyl]sulfanyl}phenyl)methyl]-2-methoxypyridine-3-carboxamide], the IC50 in assay [1] (setting [3]) and in assay [2] (setting [4]) was under 20 nM in each case.
Take `Cc1nc(C)c(-c2ccn3nc(N)nc3c2)cc1C(=O)NCc1ccccc1OC(C)C1CCCC1` (centres unmarked) [Example 16, 5-{2-Amino-[1,2,4]triazolo[1,5-a]pyridin-7-yl}-N-{[2-(1-cyclopentylethoxy)phenyl]methyl}-2,6-dimethylpyridine-3-carboxamide]: the IC50 in assay [1] (setting [5]) was 20 to 200 nM; in assay [2] (setting [4]), under 20 nM.
In the same order, the values of `C[C@@H](NC(=O)c1cc(-c2ccn3nc(N)nc3c2)cnc1Cl)c1cc(OC(F)(F)F)ccc1F` [Example 324, (R)-5-(2-amino-[1,2,4]triazolo[1,5-a]pyridin-7-yl)-2-chloro-N-(1-(2-fluoro-5-(trifluoromethoxy)phenyl)ethyl)nicotinamide] are 20 to 200 nM and under 20 nM.
Turning to `Cc1cnc(-c2ccn3nc(N)nc3c2)nc1C(=O)NCCC(C)c1ccccc1` (centres unmarked) [Example 411, 2-(2-amino-[1,2,4]triazolo[1,5-a]pyridin-7-yl)-5-methyl-N-(3-phenylbutyl)pyrimidine-4-carboxamide], the IC50 is over 200 nM in assay [1] (setting [6]) and 20 to 200 nM in assay [2] (setting [7]).
For the compound `Cc1nc(C)c(-c2ccn3nc(N)nc3c2)cc1C(=O)NCc1cc(OCC2CC2)ccc1F` [Example 290, 5-(2-amino-[1,2,4]triazolo[1,5-a]pyridin-7-yl)-N-(5-(cyclopropylmethoxy)-2-fluorobenzyl)-2,6-dimethylnicotinamide], the figures for the IC50 in assay [1] (setting [5]) and in assay [2] (setting [4]) were 20 to 200 nM and under 20 nM, respectively.
Turning to `Cc1ncc(-c2ccn3nc(N)nc3c2)cc1C(=O)NCc1ccccc1OCC(C)C` [Example 305, 5-(2-amino-[1,2,4]triazolo[1,5-a]pyridin-7-yl)-N-(2-isobutoxybenzyl)-2-methylnicotinamide], the IC50 in assay [1] (setting [5]) and in assay [2] (setting [7]) was 20 to 200 nM each time.
On to `COc1ncc(-c2ccn3nc(N)nc3c2)nc1C(=O)NCCC(C)c1ccccc1` (centres unmarked) [Example 385, 6-(2-amino-[1,2,4]triazolo[1,5-a]pyridin-7-yl)-3-methoxy-N-(3-phenylbutyl)pyrazine-2-carboxamide], for which the IC50 was over 200 nM in assay [1] (setting [6]) and 20 to 200 nM in assay [2] (setting [7]).
With `[2H]C([2H])([2H])Oc1ncc(-c2ccn3nc(N)nc3c2)cc1C(=O)NCc1cc(OC(F)(F)F)ccc1F` [Example 92, 5-{2-amino-[1,2,4]triazolo[1,5-a]pyridin-7-yl}-N-{[2-fluoro-5-(trifluoromethoxy)phenyl]methyl}-2-(deutero)methoxypyridine-3-carboxamide], the IC50 in assay [1] (setting [3]) and in assay [2] (setting [4]) was under 20 nM each time.
On to `Cc1ncc(-c2ccn3nc(N)nc3c2)cc1C(=O)NCc1ccccc1OC1CCOCC1` [Example 5, 5-{2-Amino-[1,2,4]triazolo[1,5-a]pyridin-7-yl}-2-methyl-N-{[2-(oxan-4-yloxy)phenyl]methyl}pyridine-3-carboxamide], for which the IC50 was 20 to 200 nM in assay [1] (setting [5]) and under 20 nM in assay [2] (setting [4]).
As to `COc1nc(C)c(-c2ccn3nc(N)nc3c2)cc1C(=O)NCc1c(F)cccc1OCC(F)(F)F` [Example 328, 5-(2-amino-[1,2,4]triazolo[1,5-a]pyridin-7-yl)-N-(2-fluoro-6-(2,2,2-trifluoroethoxy)benzyl)-2-methoxy-6-methylnicotinamide], the IC50 in assay [1] (setting [3]) and in assay [2] (setting [4]) was under 20 nM in each case.
Regarding `[2H]C([2H])([2H])Oc1ncc(-c2ccn3nc(N)nc3c2)cc1C(=O)NCc1cc(F)cc(F)c1OC([2H])([2H])C1CC1` [Example 283, 5-(2-amino-[1,2,4]triazolo[1,5-a]pyridin-7-yl)-N-(2-(cyclopropylmethoxy-d2)-3,5-difluorobenzyl)-2-(methoxy-H3)nicotinamide], the IC50 in assay [1] (setting [3]) and in assay [2] (setting [4]) was under 20 nM in each case.
Turning to `Cc1ncc(-c2ccn3nc(N)nc3c2)cc1C(=O)NCc1ncccc1OCC1CCCC1` [Example 12, 5-{2-amino-[1,2,4]triazolo[1,5-a]pyridin-7-yl}-N-{[3-(cyclopentylmethoxy)pyridin-2-yl]methyl}-2-methylpyridine-3-carboxamide], the IC50 in assay [1] (setting [5]) was 20 to 200 nM; in assay [2] (setting [4]), under 20 nM.
For the compound `Nc1nc2cc(-c3cnc(Cl)c(C(=O)NCc4cccc(OCC5CC5)c4)c3)ccn2n1` [Example 164], the IC50 in assay [1] (setting [5]) and in assay [2] (setting [7]) was 20 to 200 nM in each case.
In the case of `Cc1nc(C)c(-c2ccn3nc(N)nc3c2)cc1C(=O)NCc1ncccc1OCC1CCCC1` [Example 182, 5-{2-amino-[1,2,4]triazolo[1,5-a]pyridin-7-yl}-N-{[3-(cyclopentylmethoxy)pyridin-2-yl]methyl}-2,6-dimethylpyridine-3-carboxamide], the IC50 in assay [1] (setting [5]) is 20 to 200 nM; in assay [2] (setting [4]), under 20 nM.
Consider `COc1ncc(-c2ccn3nc(N)nc3c2)cc1NC(=O)Cc1cccc(OC(F)(F)F)c1` [Example 415, N-(5-(2-amino-[1,2,4]triazolo[1,5-a]pyridin-7-yl)-2-methoxypyridin-3-yl)-2-(3-(trifluoromethoxy)phenyl)acetamide], for which the IC50 in assay [1] (setting [5]) and in assay [2] (setting [7]) was 20 to 200 nM each time.
`Nc1nc2cc(-c3cnc(N)c(C(=O)NCc4ccccc4Sc4ccccc4CO)c3)ccn2n1` [Example 62, 2-Amino-5-{2-amino-[1,2,4]triazolo[1,5-a]pyridin-7-yl}-N-[(2-{[2-(hydroxymethyl)phenyl]sulfanyl}phenyl)methyl]pyridine-3-carboxamide]: the IC50 was 20 to 200 nM in assay [1] (setting [5]) and under 20 nM in assay [2] (setting [4]).
Take `COc1ncc(-c2ccn3nc(N)nc3c2)cc1C(=O)NCc1c(F)cccc1OCC1CCC1` [Example 146, 5-{2-amino-[1,2,4]triazolo[1,5-a]pyridin-7-yl}-N-{[2-(cyclobutylmethoxy)-6-fluorophenyl]methyl}-2-methoxypyridine-3-carboxamide]: the IC50 in assay [1] (setting [3]) and in assay [2] (setting [4]) was under 20 nM each time.
With `COc1nc(C)c(-c2ccn3nc(N)nc3c2)cc1C(=O)NCc1ccccc1OCC(C)C` [Example 327, 5-(2-amino-[1,2,4]triazolo[1,5-a]pyridin-7-yl)-N-(2-isobutoxybenzyl)-2-methoxy-6-methylnicotinamide], the IC50 in assay [1] (setting [3]) and in assay [2] (setting [4]) was under 20 nM in each case.
Consider `Cc1ncc(-c2ccn3nc(N)nc3c2)cc1C(=O)NCc1cccc(OCC2CC2)c1` [Example 243, 5-{2-amino-[1,2,4]triazolo[1,5-a]pyridin-7-yl}-N-{[3-(cyclopropylmethoxy)phenyl]methyl}-2-methylpyridine-3-carboxamide], for which the IC50 is over 200 nM in assay [1] (setting [6]) and 20 to 200 nM in assay [2] (setting [7]).
Take `COc1ncc(-c2ccn3nc(N)nc3c2)cc1C(=O)NCc1ccccc1OCC1CC1` [Example 81, 5-{2-Amino-[1,2,4]triazolo[1,5-a]pyridin-7-yl}-N-{[2-(cyclopropylmethoxy)phenyl]methyl}-2-methoxypyridine-3-carboxamide]: the IC50 in assay [1] (setting [3]) and in assay [2] (setting [4]) was under 20 nM in each case.
On to `Nc1nc2cc(-c3cncc(C(=O)NCc4ccccc4OC4CCCC4)c3)ccn2n1` [Example 43, 5-{2-Amino-[1,2,4]triazolo[1,5-a]pyridin-7-yl}-N-{[2-(cyclopentyloxy)phenyl]methyl}pyridine-3-carboxamide], for which the IC50 in assay [1] (setting [5]) is 20 to 200 nM; in assay [2] (setting [4]), under 20 nM.
For `Cc1ncc(-c2ccn3nc(N)nc3c2)cc1C(=O)NCc1ncccc1OCC1CCC1` [Example 236, 5-{2-amino-[1,2,4]triazolo[1,5-a]pyridin-7-yl}-N-{[3-(cyclobutylmethoxy)pyridin-2-yl]methyl}-2-methypyridine-3-carboxamide], the IC50 in assay [1] (setting [5]) and in assay [2] (setting [7]) was 20 to 200 nM each time.
On to `COc1nc(C)c(-c2ccn3nc(N)nc3c2)cc1C(=O)NCc1cc(C(F)(F)F)ccc1F` [Example 197, 5-{2-amino-[1,2,4]triazolo[1,5-a]pyridin-7-yl}-N-{[2-fluoro-5-(trifluoromethyl)phenyl]methyl}-2-methoxy-6-methylpyridine-3-carboxamide], for which the IC50 in assay [1] (setting [5]) was 20 to 200 nM; in assay [2] (setting [4]) it was under 20 nM.
For the compound `Cc1ncc(-c2ccn3nc(N)nc3c2)cc1C(=O)NC(C)c1cc(C(F)(F)F)ccc1F` (single isomer, unassigned) [Example 99-1, 5-{2-amino-[1,2,4]triazolo[1,5-a]pyridin-7-yl}-N-{1-[2-fluoro-5-(trifluoromethyl)phenyl]ethyl}-2-methylpyridine-3-carboxamide], the IC50 in assay [1] (setting [5]) and in assay [2] (setting [7]) was 20 to 200 nM each time.
Turning to `Cc1ncc(-c2ccn3nc(N)nc3c2)cc1C(=O)NCc1cc(F)cc(F)c1OC1CC(C)OC(C)C1` (centres unmarked) [Example 315, 5-(2-amino-[1,2,4]triazolo[1,5-a]pyridin-7-yl)-N-(2-((2,6-dimethyltetrahydro-2H-pyran-4-yl)oxy)-3,5-difluorobenzyl)-2-methylnicotinamide], the IC50 in assay [1] (setting [5]) and in assay [2] (setting [7]) was 20 to 200 nM in each case.
